Earlier results in publication PMC6768323, “Adverse Maternal, Fetal, and Postnatal Effects of Hexafluoropropylene Oxide Dimer Acid (GenX) from Oral Gestational Exposure in Sprague-Dawley Rats” (Environmental Health Perspectives, 2019).
Like-named read-outs stand apart in the source and are kept apart here.

Test system: rat
Conditions: cited from earlier work

O=S(=O)(O)C(F)(F)C(F)(F)C(F)(F)C(F)(F)C(F)(F)C(F)(F)C(F)(F)C(F)(F)F [PFOS, perfluorooctane sulfonate]
dose with increased neonatal mortality (ref Lau et al. 2003): ≥ 3 mg/kg
dose with lower pup body weights (ref Lau et al. 2003): ≥ 2 mg/kg
dose with neonatal mortality (ref Luebker et al. 2005a, 2005b): ≥ 1.6 mg/kg
dose with lower pup body weights (ref Luebker et al. 2005b): ≥ 0.4 mg/kg
